Patent US20250214925A1, “CATIONIC LIPID, LIPOSOME, LIPID NANOPARTICLE, AND USE” (CARCELL BIOPHARMA LTD., priority 2022, published 2025)

Experiments:
[1] = LNP size and PDI by dynamic laser light scattering; type: physicochemical; details: LNP: 50% cationic lipid, 38.5% cholesterol, 10% DSPC, 1.5% DMG-PEG2000; Ffluc mRNA
Experimental: (§1) 1. The cationic lipid (50 mg/mL) prepared in the above examples of the present disclosure, cholesterol (20 mg/mL), DSPC (20 mg/mL) and DMG-PEG2000 (20 mg/mL) were dissolved in ethanol, and the solution was placed in a 55° C. metal thermostatic bath as needed to aid dissolution, to obtain a lipid mixture with the following molar composition: 1.5% DMG-PEG2000, 50% cationic lipid, 38.5% cholesterol, and 10% DSPC.
(§2) 2. The mRNA encoding Ffluc was diluted with 10 mM pH 4.0 citrate buffer to prepare a 0.2 mg/mL mRNA solution.
(§3) 3. The lipid mixture prepared in step 1 was mixed with the mRNA solution prepared in step 2 using a syringe pump with a tee at a total flow rate of 40 mL/min.
(§4) 4. The LNP mixture was collected after the three-way mixing and placed in a dialysis bag with a molecular weight cut-off of 100 KDa.
(§5) 5. The LNP mixture was dialyzed overnight against 50 mM Tris-buffered saline, pH 7.4.
(§6) 6. Sieving, and subsequent measurement of the sieved LNP to measure the PDI of the LNP by dynamic laser light scattering; to measure the mRNA encapsulation efficiency and concentration by Ribogreen assay; and to measure the pKa by TNS-α assay.

mice = assay: In vivo delivery of Ffluc mRNA LNP in mice, intravenous administration, luminescence relative to MC3; set-up: species or system mice (female Balb/C); details: fold change in luminescence intensity relative to MC3; 0.06 mg/kg tail vein; 6 h after injection
Experimental: The prepared encapsulation solution was applied to mice in the following manner, and its delivery efficiency in mice was tested. Among them, DLin-MC3-DMA (MC3) was a cationic liposome for delivering small nucleic acids that was approved by the FDA for marketing in 2018, which has high nucleic acid drug delivery efficiency and biosafety, and was usually used as the industry gold standard in the screening process of cationic lipids. In the evaluation of mice experiments, the ratio of nucleic acid delivery efficiency normalized to MC3 was greater than 0.1, which was considered to be a cationic lipid with high delivery efficiency.
1. The LNP solution was diluted with 50 mM TBS, pH 7.4 to a concentration of 0.1 mg/mL mRNA.
2. The mice involved in this study were female Balb/C, weighing 18-22 g, 6-8 weeks old, with 5 mice in each group.
3. The dosing solution was kept at 4° C. prior to injection.
4. Each mice received 0.06 mg/kg via tail vein injection.
5. The mice were injected intraperitoneally with 200 μL of 1.5 mg/mL D-luciferin solution 6 h after injection.
6. The in vivo luminescence images of the mice were obtained using the IVIS system (Aniview).
7. The luminescence intensity of each mice was measured using Aniview software.
8. MC3 lipid nanoparticles were used as a positive control. The in vivo efficacy of each cationic lipid tested was recorded as the fold change in luminescence intensity relative to MC3 (ratio normalized to MC3).

[2] = mRNA encapsulation efficiency of LNP by Ribogreen assay; type: physicochemical; details: LNP: 50% cationic lipid, 38.5% cholesterol, 10% DSPC, 1.5% DMG-PEG2000; Ffluc mRNA
Experimental: as §1, §2, §3, §4, §5, §6

SMILES	PDI [1]	Size (nm) [1] [nm]	Encapsulation Rate [2] [%]	In Vivo Efficacy Normalized To Mc3 In Mice (Intravenous Injection) (mice)
CCCCCCCCCC/C(=C/C(=O)OCCCCCN(CCCO)CCCCCOC(=O)/C=C(\CCCCC)CCCCCCCCCC)CCCCC [CPL-048, ((3-hydroxypropyl)azanediyl)bis(pentane-5,1-diyl) (2E,2′E)-bis(3-pentyltridec-2-enoate)]	0.2409	110.1	94	1.57
CCCCCCCC/C(=C/C(=O)OCCCCCCN(CCCO)CCCCCCOC(=O)/C=C(\CCC)CCCCCCCC)CCC [CPL-061, ((3-hydroxypropyl)azanediyl)bis(hexane-6,1-diyl) (2E,2′E)-bis(3-propylundec-2-enoate)]	0.1612	94.04	94	1.06
CCCCCCCC/C(=C/C(=O)OCCCCCCN(CCCO)CCCCCCOC(=O)/C=C(\CCCC)CCCCCCCC)CCCC [CPL-065, ((3-hydroxypropyl)azanediyl)bis(hexane-6,1-diyl) (2E,2′E)-bis(3-butylundec-2-enoate)]	0.1898	83.7	95	1.62
CCCCCC/C(=C/C(=O)OCCCCCCCN(CCCO)CCCCCCCOC(=O)/C=C(\CCCCC)CCCCCC)CCCCC [CPL-090, ((3-hydroxypropyl)azanediyl)bis(heptane-7,1-diyl) (2E,2′E)-bis(3-pentylnon 2-enoate)]	0.1615	85.28	94	2.02
CCCCCC/C(=C/C(=O)OCCCCCCCCN(CCCO)CCCCCCCCOC(=O)/C=C(\CCCCC)CCCCCC)CCCCC [CPL-112, ((3-hydroxypropyl)azanediyl)bis(octane-8,1-diyl)(2E,2′E)-bis(3-pentylnon-2-enoate)]	0.1173	85.04	95	2.14
CCCCCCC/C(=C/C(=O)OCCCCCCCCCCCN(CCCO)CCCCCCCCCCCOC(=O)/C=C(\CCCC)CCCCCCC)CCCC [CPL-184, ((3-hydroxypropyl)azanediyl)bis(undecane-11,1-diyl) (2E,2′E)-bis(3butyldec-2-enoate)]	0.173	84.6	94	0.98
CCCCC/C=C\C/C=C\CCCCCCCC(=O)OCC(COC(=O)/C=C(\CCCC)CCCCC)COC(=O)OCCN(C)C (centres unmarked) [CPL-199, 3-(((E)-3-butyloct-2-enoyl)oxy)-2-((((2-(dimethylamino)ethoxy)carbonyl)oxy)methyl)propyl(9Z,12Z)-octadeca-9,12-dienoate]	0.1394	86.92	96	0.12
CCCCC/C=C\C/C=C\CCCCCCCC(=O)OCC(COC(=O)C=C(CCCCCCCC)CCCCCCCC)COC(=O)OCCN(C)C (centres unmarked) [CPL-210, 3-(((2-(dimethylamino)ethoxy)carbonyl)oxy)-2-(((3-octylundec-2-enoyl)oxy)methyl)propyl(9Z,12Z)-octadeca-9,12-dienoate]	0.2144	52.37	83	0.14
CCCCC/C=C\C/C=C\CCCCCCCC(=O)OCC(COC(=O)/C=C(\CCCCC)CCCCCC)COC(=O)OCCCN(C)C (centres unmarked) [CPL-222, 3-(((3-(dimethylamino)propoxy)carbonyl)oxy)-2-((((E)-3-pentylnon-2-enoyl)oxy)methyl)propyl(9Z,12Z)-octadeca-9,12-dienoate]	0.0629	72.01	96	0.37

Now from value to compound, other results behind:

PDI [1]	Size (nm) [1] [nm]	Encapsulation Rate [2] [%]	SMILES	In Vivo Efficacy Normalized To Mc3 In Mice (Intravenous Injection) (mice)
0.1651	101.6	90	CCCCCCC(=CC(=O)OCCCCCN(CCCO)CCCCCOC(=O)C=C(CCCCCC)CCCCCC)CCCCCC [CPL-049, ((3-hydroxypropyl)azanediyl)bis(pentane-5,1-diyl)(2E,2′E)-bis(3-hexylnon-2-enoate)]	1.88
0.1162	90.76	93	CCCCCCC/C(=C/C(=O)OCCCCCN(CCCO)CCCCCOC(=O)/C=C(\CCCC)CCCCCCC)CCCC [CPL-052, ((3-hydroxypropyl)azanediyl)bis(pentane-5,1-diyl) (2E,2′E)-bis(3-butyldec-2-enoate)]	1.46
0.1194	114.4	87	CCCCC/C=C\C/C=C\CCCCCCCC(=O)OCC(COC(=O)/C=C(/CCCC)CCCCCC)COC(=O)OCCCN(C)C (centres unmarked) [CPL-218, 3-(((Z)-3-butylnon-2-enoyl)oxy)-2-((((3-(dimethylamino)propoxy)carbonyl)oxy)methyl)propyl(9Z,12Z)-octadeca-9,12-dienoate]	0.19
0.0453	82.01	96	CCCCC/C=C\C/C=C\CCCCCCCC(=O)OCC(COC(=O)/C=C(\CCCC)CCCCC)COC(=O)OCCCN(C)C (centres unmarked) [CPL-221, 3-(((E)-3-butyloct-2-enoyl)oxy)-2-((((3-(dimethylamino)propoxy)carbonyl)oxy)methyl)propyl(9Z,12Z)-octadeca-9,12-dienoate]	0.44
0.102	99.55	98	CCCCC/C=C\C/C=C\CCCCCCCC(=O)OCC(COC(=O)/C=C(\CCCCC)CCCCCCCC)COC(=O)OCCCN(C)C (centres unmarked) [CPL-223, 3-(((3-(dimethylamino)propoxy)carbonyl)oxy)-2-((((E)-3-pentylundec-2-enoyl)oxy)methyl)propyl(9Z,12Z)-octadeca-9,12-dienoate]	0.41
0.1162	90.88	94	CCCCC/C=C\C/C=C\CCCCCCCC(=O)OCC(COC(=O)/C=C(\CCCCC)CCCCCCCCCC)COC(=O)OCCCN(C)C (centres unmarked) [CPL-224, 3-(((3-(dimethylamino)propoxy)carbonyl)oxy)-2-((((E)-3-pentyltridec-2-enoyl)oxy)methyl)propyl(9Z,12Z)-octadeca-9,12-dienoate]	0.87
0.1118	69.42	95	CCCCC/C=C\C/C=C\CCCCCCCC(=O)OCC(COC(=O)/C=C(\CCCCCCC)CCCCCCCCCC)COC(=O)OCCCN(C)C (centres unmarked) [CPL-231, 3-(((3-(dimethylamino)propoxy)carbonyl)oxy)-2-((((E)-3-heptyltridec-2-enoyl)oxy)methyl)propyl(9Z,12Z)-octadeca-9,12-dienoate]	0.55
0.1369	86.5	98	CCCCC/C=C\C/C=C\CCCCCCCC(=O)OCC(COC(=O)/C=C(\CCCCCCC)CCCCCCCC)COC(=O)OCCCCN(C)C (centres unmarked) [CPL-252]	0.34
